Literature values in US12310973B2, “Administration and dosage of diaminophenothiazines” (WisTa Laboratories Ltd., priority 2016, dated 2025).

Tests used:
[1] = tested on: TDP-43 aggregates in SH-SY5Y cells; conditions: 0.05 μM MT; cited from earlier work
[2] = tested on: huntingtin derivative containing a polyglutamine stretch of 102 residues; conditions: tested at 0, 10 and 100 μM; zebrafish; cited from earlier work

Substance: methylthioninium [MT]
- Reduction in number of TDP-43 aggregates [1]: 50%
- Formation of aggregates of huntingtin derivative (polyglutamine stretch of 102 residues) [2]: prevented the formation of such aggregates in zebrafish in a dose dependent manner
